From patent US20220226342A1, “COMPOSITIONS AND METHODS OF TREATING LIVER CANCERS” (The Johns Hopkins University, priority 2019, published 2022)

How the values were obtained:
HCC 67-1 = assay: IC50 in PDO line; format: cell-based; conditions: Homo sapiens
Protocol: (§1) The inventors tested omacetaxine at decreasing concentrations (10 μM, 1 μM, 100 nM, 10 nM and 1 nM) to calculate the half-maximal inhibitory concentration (IC50). […] The IC50 value for each of the 40 HCC PDO lines can be found in Table 2.

HCC 26-4 = assay: IC50 in PDO line; format: cell-based; conditions: Homo sapiens
Protocol: as §1

HCC 80-3 = assay: IC50 in PDO line; format: cell-based; conditions: Homo sapiens
Protocol: as §1

HCC 71-1 = assay: IC50 in PDO line; format: cell-based; conditions: Homo sapiens
Protocol: as §1

HCC 37 = assay: IC50 in PDO line; format: cell-based; conditions: Homo sapiens
Protocol: as §1

HCC 24 = assay: IC50 in PDO line; format: cell-based; conditions: Homo sapiens
Protocol: as §1

HCC 26-7 = assay: IC50 in PDO line; format: cell-based; conditions: Homo sapiens
Protocol: as §1

HCC 71-4 = assay: IC50 in PDO line; format: cell-based; conditions: Homo sapiens
Protocol: as §1

HCC 59 = assay: IC50 in PDO line; format: cell-based; conditions: Homo sapiens
Protocol: as §1

HCC 80-1 = assay: IC50 in PDO line; format: cell-based; conditions: Homo sapiens
Protocol: as §1

HCC 36-3 = assay: IC50 in PDO line; format: cell-based; conditions: Homo sapiens
Protocol: as §1

HCC 76 = assay: IC50 in PDO line; format: cell-based; conditions: Homo sapiens
Protocol: as §1

HCC 26-5 = assay: IC50 in PDO line; format: cell-based; conditions: Homo sapiens
Protocol: as §1

HCC 35 = assay: IC50 in PDO line; format: cell-based; conditions: Homo sapiens
Protocol: as §1

HCC 83-2 = assay: IC50 in PDO line; format: cell-based; conditions: Homo sapiens
Protocol: as §1

HCC 83-3 = assay: IC50 in PDO line; format: cell-based; conditions: Homo sapiens
Protocol: as §1

HCC 71-2 = assay: IC50 in PDO line; format: cell-based; conditions: Homo sapiens
Protocol: as §1

HCC 77 = assay: IC50 in PDO line; format: cell-based; conditions: Homo sapiens
Protocol: as §1

HCC 30 = assay: IC50 in PDO line; format: cell-based; conditions: Homo sapiens
Protocol: as §1

HCC 80-5 = assay: IC50 in PDO line; format: cell-based; conditions: Homo sapiens
Protocol: as §1

HCC 25-3 = assay: IC50 in PDO line; format: cell-based; conditions: Homo sapiens
Protocol: as §1

HCC 83-1 = assay: IC50 in PDO line; format: cell-based; conditions: Homo sapiens
Protocol: as §1

HCC 40 = assay: IC50 in PDO line; format: cell-based; conditions: Homo sapiens
Protocol: as §1

HCC 80-2 = assay: IC50 in PDO line; format: cell-based; conditions: Homo sapiens
Protocol: as §1

HCC 65-2 = assay: IC50 in PDO line; format: cell-based; conditions: Homo sapiens
Protocol: as §1

HCC 67-2 = assay: IC50 in PDO line; format: cell-based; conditions: Homo sapiens
Protocol: as §1

HCC 50 = assay: IC50 in PDO line; format: cell-based; conditions: Homo sapiens
Protocol: as §1

HCC 26-2 = assay: IC50 in PDO line; format: cell-based; conditions: Homo sapiens
Protocol: as §1

HCC 25-1 = assay: IC50 in PDO line; format: cell-based; conditions: Homo sapiens
Protocol: as §1

HCC 38 = assay: IC50 in PDO line; format: cell-based; conditions: Homo sapiens
Protocol: as §1

HCC 26-3 = assay: IC50 in PDO line; format: cell-based; conditions: Homo sapiens
Protocol: as §1

HCC 26-6 = assay: IC50 in PDO line; format: cell-based; conditions: Homo sapiens
Protocol: as §1

HCC 25-2 = assay: IC50 in PDO line; format: cell-based; conditions: Homo sapiens
Protocol: as §1

HCC 65-3 = assay: IC50 in PDO line; format: cell-based; conditions: Homo sapiens
Protocol: as §1

HCC 57 = assay: IC50 in PDO line; format: cell-based; conditions: Homo sapiens
Protocol: as §1

HCC 26-8 = assay: IC50 in PDO line; format: cell-based; conditions: Homo sapiens
Protocol: as §1

HCC 67-3 = assay: IC50 in PDO line; format: cell-based; conditions: Homo sapiens
Protocol: as §1

HCC71-3 = assay: IC50 in PDO line; format: cell-based; conditions: Homo sapiens
Protocol: as §1

HCC 34-3 = assay: IC50 in PDO line; format: cell-based; conditions: Homo sapiens
Protocol: as §1

HCC 80-4 = assay: IC50 in PDO line; format: cell-based; conditions: Homo sapiens
Protocol: as §1

26-3 PDX = assay: Ki67 immunofluorescent staining of PDX tumor frozen sections; format: in vivo, NSG mice; conditions: omacetaxine treated HCC PDX tumors vs matched controls
Description: FIG. 8A-8G. Omacetaxine inhibits tumor cell proliferation and increases apoptosis and suppressed HCC oncoprotein expression in vivo. (8A-8D) Immunofluorescent staining of Ki67 and cleaved caspase 3 expression in 26-3 PDX model. 8A-8B show the IF staining pictures, 8C-8D show the relative Ki67 or cleaved caspase 3 positive cell number in omacetaxine treated mice compared with control treatment groups. (8E-8G) Omacetaxine suppressed HCC oncoprotein: c-Myc, Beta-catenin and MET protein expression in 50 HCC PDX treated with Omacetaxine vs control.
To verify the mechanism of omacetaxine target HCC mechanism in vivo, omacetaxine treated HCC PDX tumors, as well as matched controls, were harvested, and frozen section slides were made. […] The difference in apoptosis as well as proliferation was statistically significant (FIGS. 8C and 8D).

COC(=O)C[C@](O)(CCCC(C)(C)O)C(=O)O[C@@H]1C(OC)=C[C@]23CCCN2CCc2cc4c(cc2[C@H]13)OCO4 [omacetaxine, omacetaxine mepusuccinate]
IC50 (HCC 67-1): 4.03 nM
IC50 (HCC 26-4): 33.5 nM
IC50 (HCC 80-3): 15.7 nM
IC50 (HCC 71-1): 7.29 nM
IC50 (HCC 37): 3.52 nM
IC50 (HCC 24): 148 nM
IC50 (HCC 26-7): 1.41 nM
IC50 (HCC 71-4): 9.98 nM
IC50 (HCC 59): 21.2 nM
IC50 (HCC 80-1): 80.1 nM
IC50 (HCC 36-3): 80.7 nM
IC50 (HCC 76): 35.5 nM
IC50 (HCC 26-5): 66.7 nM
IC50 (HCC 35): 13.1 nM
IC50 (HCC 83-2): 19.2 nM
IC50 (HCC 83-3): 8.85 nM
IC50 (HCC 71-2): 2.05 nM
IC50 (HCC 77): 46.1 nM
IC50 (HCC 30): 50.6 nM
IC50 (HCC 80-5): 27.6 nM
IC50 (HCC 25-3): 60.1 nM
IC50 (HCC 83-1): 17.7 nM
IC50 (HCC 40): 15.8 nM
IC50 (HCC 80-2): 44 nM
IC50 (HCC 65-2): 7.4 nM
IC50 (HCC 67-2): 12.8 nM
IC50 (HCC 50): 29.8 nM
IC50 (HCC 26-2): 118 nM
IC50 (HCC 25-1): 37.4 nM
IC50 (HCC 38): 18.5 nM
IC50 (HCC 26-3): 27.8 nM
IC50 (HCC 26-6): 80.8 nM
IC50 (HCC 25-2): 11.7 nM
IC50 (HCC 65-3): 2.26 nM
IC50 (HCC 57): 14.1 nM
IC50 (HCC 26-8): 37.8 nM
IC50 (HCC 67-3): 1.67 nM
IC50 (HCC71-3): 1.51 nM
IC50 (HCC 34-3): 37.7 nM
IC50 (HCC 80-4): 3.18 nM
proliferation as measured by Ki67 protein expression (26-3 PDX): less
